Target: T1, CXCR4 (C-X-C chemokine receptor type 4) (Homo sapiens, UniProt P61073)
T1 construct: purified membrane fractions of HEK293 cells overexpressing CXCR4
Assay: […]CXCL12 radioligand displacement on CXCR4 membranes
Format: binding

T1 sequence (P61073 whole entry): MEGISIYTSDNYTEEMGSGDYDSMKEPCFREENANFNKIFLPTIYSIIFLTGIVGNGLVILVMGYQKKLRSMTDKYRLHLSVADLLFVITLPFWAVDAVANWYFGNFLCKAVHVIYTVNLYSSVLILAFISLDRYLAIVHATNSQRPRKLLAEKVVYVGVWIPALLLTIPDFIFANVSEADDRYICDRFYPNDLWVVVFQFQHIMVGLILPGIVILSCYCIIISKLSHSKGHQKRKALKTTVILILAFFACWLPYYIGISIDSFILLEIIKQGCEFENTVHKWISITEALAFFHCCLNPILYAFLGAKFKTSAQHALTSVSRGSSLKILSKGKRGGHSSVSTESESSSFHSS

With Cc1cc(NC2CCN(C(=O)CCNCC(=O)O)CC2)nc(NCc2nc(CCCNCCCNC3CCCCC3)co2)n1 [CX807] the IC50 was 65.4 ± 11.8 nM.

— publication PMC7582767, “Protective Effect of CXCR4 Antagonist CX807 in a Rat Model of Hemorrhagic Stroke” (International Journal of Molecular Sciences, 2020)
